Assay results taken from patent US12612417B2, “Deuterated analogues of selenophenochromenes, synthesis thereof, and methods of using same agents” (Latvian Institute of Organic Synthesis, priority 2019, dated 2026).
Where a name gives a salt, the structure may show the parent alone.

Columns and labels:
[1] = tested on: MES-SA (human uterus sarcoma); assay: In vitro cytotoxicity (MTT) on MES-SA; type: cell-based; conditions: 48 h
Method: (§1) Anticancer activity of deuterated selenopheno[h]chromenes was tested in vitro using cytotoxicity assay. Thus, monolayer tumor cell lines MDA-MB-435s (human melanoma), MCF-7 (human breast adenocarcinoma, estrogen-positive), MES-SA (human uterus sarcoma), HT-1080 (human fibrosarcoma), A549 (human lung carcinoma), GM08402 (human fibroblast, apparently healthy), 3T3 (mouse embryo fibroblasts), H9C2 (rat cardiomyocytes) were cultured in standard medium DMEM (Dulbecco's modified Eagle's medium) (“Sigma”) supplemented with 10% heat-inactivated fetal bovine serum (“Sigma”). The cell viability was assessed by addition of 3-(4,5-dimethylthiazol-2-yl)-2,5-diphenyltetrazolinium bromide (MTT). Briefly, cells were seeded (2−6×10^4 cells/ml) in 96-well plates and allowed to attach for 24 h.
(§2) Tested compound solutions were prepared and serially diluted to obtain appropriate concentrations. Cells were treated with different concentrations (0.032-100 μM) and incubated for 48 h at 37° C., 5% CO2 Then the culture medium was removed and medium containing 0.2 mg/ml MTT was added. After 3 h (37° C., 5% CO2), the MTT-containing medium was removed, and 200 μl of dimethyl sulfoxide (DMSO) was immediately added to each sample. The absorbance was assessed at 540 nm on a Tecan multiplate reader Infinite 1000 (Austria). The half-maximal inhibitory concentration (IC50) of each compound was calculated using Graph Pad Prism® 3.0.

[2] = In vitro cytotoxicity (MTT) on H9C2; type: cell-based, rat; conditions: rat, H9C2 cardiomyocytes
Method: as §1, §2

[3] = In vitro cytotoxicity (MTT) on GM08402; type: cell-based, human; conditions: human, GM08402 fibroblasts
Method: as §1, §2

[4] = In vitro cytotoxicity (MTT) on 3T3; type: cell-based, mouse; conditions: mouse, 3T3 embryo fibroblasts, 3T3, MTT
Method: as §1, §2

MDA-MB-231 = assay: In vitro cytotoxicity (MTT) on MDA-MB-231; type: cell-based, human; conditions: MDA-MB-231, MTT, 48 h
[5] = tested on: A549 (human lung carcinoma); assay: In vitro cytotoxicity (MTT) on A549; type: cell-based; conditions: 48 h
Method: as §1, §2

[6] = tested on: MCF-7 (human breast adenocarcinoma, estrogen-positive); assay: In vitro cytotoxicity (MTT) on MCF-7; type: cell-based; conditions: MCF-7, MTT, 48 h
Method: as §1, §2

[7] = tested on: HT-1080 (human fibrosarcoma); assay: In vitro cytotoxicity (MTT) on HT-1080; type: cell-based; conditions: HT-1080, MTT, 48 h
Method: as §1, §2

[8] = tested on: H9C2 (rat cardiomyocytes); assay: In vitro cytotoxicity (MTT) on H9C2; type: cell-based; conditions: 48 h
Method: as §1, §2

[9] = tested on: GM08402 (human fibroblast, apparently healthy); assay: In vitro cytotoxicity (MTT) on GM08402; type: cell-based; conditions: 48 h
Method: as §1, §2

[10] = tested on: 3T3 (mouse embryo fibroblasts); assay: In vitro cytotoxicity (MTT) on 3T3; type: cell-based; conditions: 3T3, MTT, 48 h
Method: as §1, §2

[11] = Metabolic stability in vitro, lysate of human hepatoma cells HepG2; type: in vitro ADME; conditions: 37° C.
Method: Assay: the human hepatoma cells HepG2 (ATCC HB-8065) were grown in Eagle's Minimum Essential Medium supplemented with 10% fetal calf serum. The cells were harvested at 80% confluence. The hepatocytes were scraped, two time washed in Hank's Balanced Salt Solution (HBSS) buffer pH-7.4 and suspended in homogenization buffer composed of 10 mM Tris-HCl, 10 mM KCl, 0.15 mM MgCl2 pH 6.7. The cells were homogenized on ice by homogenizer LabGEN7 (Cole Palmer) at 5000 rpm 15 sec. Homogenized cells in HBSS with compound (protein concentration is 95 μg/ml) incubate 37° C. After 10, 30, 60, 120, 180, and 240 min collect 1 ml sample and add 0.1 ml 40% TCA, then centrifugation at 1200 g for 10 min. Supernatant collected and analyzed.
Results: The stability of deuterated selenopheno[h]chromenes I-1-I-3 compared with non-deuterated analogue methyl 7-bromo-8-((4-methylpiperazin-1-yl)methyl)-2-oxo-2H-selenopheno[3,2-h]chromene-3-carboxylate dihydrochloride (I-0) was tested in vitro using lysate of human hepatoma cells HepG2. The results are presented in FIG. 1 (x-axis—minutes of incubation, y-axis—percent of remained ester).

| Compound | IC50 ([1]; Homo sapiens) [µM] | IC50 at 48 h [2] [µM] | IC50 at 48 h [3] [µM] | IC50 at 48 h [4] [µM] | IC50 (MDA-MB-231; Homo sapiens) [µM] | IC50 ([5]; Homo sapiens) [µM] | IC50 ([6]; Homo sapiens, MCF7) [µM] | IC50 ([7]; Homo sapiens) [µM] | IC50 [1] [µM] | IC50 [8] [µM] | IC50 [9] [µM] | IC50 [10] [µM] | IC50 (MDA-MB-231) [µM] | IC50 [5] [µM] | percent of remained ester ([11]; after 240 minutes of incubation) [%] | stability to hydrolysis (in words) ([11]; incubation up to 240 min, FIG. 1) | IC50 [6] [µM] | IC50 [7] [µM] |
| --- | --- | --- | --- | --- | --- | --- | --- | --- | --- | --- | --- | --- | --- | --- | --- | --- | --- | --- |
| COC(=O)c1cc2ccc3c(Br)c(CN4CCN(C)CC4)[se]c3c2oc1=O [Compound I-0, methyl 7-bromo-8-((4-methylpiperazin-1-yl)methyl)-2-oxo-2H-selenopheno[3,2-h]chromene-3-carboxylate dihydrochloride, reference compound] | 56 ± 1 | 92 ± 12 | 77 ± 16 | 100 ± 5 | 95 ± 4 | > 100 | 54 ± 6 | 58 ± 5 |  |  |  |  |  |  |  |  |  |  |
| [2H]C([2H])([2H])OC(=O)c1cc2ccc3c(Br)c(CN4CCN(C)CC4)[se]c3c2oc1=O [Compound I-1, Methyl-d3 7-bromo-8-((4-methylpiperazin-1-yl)methyl)-2-oxo-2H-selenopheno[3,2-h]chromene-3-carboxylate dihydrochloride] | 40 ± 7 | 82 ± 14 | 89 ± 16 | 66 ± 11 | 84 ± 13 | 105 ± 7 | 82 ± 5 | 70 ± 6 |  |  |  |  |  |  |  |  |  |  |
| Cl.Cl.[2H]C([2H])([2H])C([2H])([2H])OC(=O)c1cc2ccc3c(Br)c(CN4CCN(C)CC4)[se]c3c2oc1=O [Compound I-2, Ethyl-d5 7-bromo-8-((4-methylpiperazin-1-yl)methyl)-2-oxo-2H-selenopheno[3,2-h]chromene-3-carboxylate dihydrochloride] | 56 ± 15 | 73 ± 4 | 94 ± 8 | 64 ± 9 | 90 ± 15 | > 100 | 46 ± 4 | 59 ± 6 |  |  |  |  |  |  |  |  |  |  |
| Butyl-d9 7-bromo-8-((4-methylpiperazin-1-yl)methyl)-2-oxo-2H-selenopheno[3,2-h]chromene-3-carboxylate dihydrochloride [Compound I-3] |  |  |  |  |  |  |  |  | 29 ± 3 | 30 ± 4 | 62 ± 3 | 34 ± 7 | 35 ± 8 | 40 ± 13 | 24 | highest stability to hydrolysis | 70 ± 3 | 31 ± 3 |
